Measured values: patent US12441768B2, “Compositions and methods for treating endometriosis” (EndoMet Biosciences, Inc., priority 2018, dated 2025)
Where two headings read alike, the source gives them in different places. Where a SMILES comes first, the peptide text is derived from it.

Molecular target: T1, β-catenin (Homo sapiens, UniProt P35222)
T1 sequence (P35222 1-781): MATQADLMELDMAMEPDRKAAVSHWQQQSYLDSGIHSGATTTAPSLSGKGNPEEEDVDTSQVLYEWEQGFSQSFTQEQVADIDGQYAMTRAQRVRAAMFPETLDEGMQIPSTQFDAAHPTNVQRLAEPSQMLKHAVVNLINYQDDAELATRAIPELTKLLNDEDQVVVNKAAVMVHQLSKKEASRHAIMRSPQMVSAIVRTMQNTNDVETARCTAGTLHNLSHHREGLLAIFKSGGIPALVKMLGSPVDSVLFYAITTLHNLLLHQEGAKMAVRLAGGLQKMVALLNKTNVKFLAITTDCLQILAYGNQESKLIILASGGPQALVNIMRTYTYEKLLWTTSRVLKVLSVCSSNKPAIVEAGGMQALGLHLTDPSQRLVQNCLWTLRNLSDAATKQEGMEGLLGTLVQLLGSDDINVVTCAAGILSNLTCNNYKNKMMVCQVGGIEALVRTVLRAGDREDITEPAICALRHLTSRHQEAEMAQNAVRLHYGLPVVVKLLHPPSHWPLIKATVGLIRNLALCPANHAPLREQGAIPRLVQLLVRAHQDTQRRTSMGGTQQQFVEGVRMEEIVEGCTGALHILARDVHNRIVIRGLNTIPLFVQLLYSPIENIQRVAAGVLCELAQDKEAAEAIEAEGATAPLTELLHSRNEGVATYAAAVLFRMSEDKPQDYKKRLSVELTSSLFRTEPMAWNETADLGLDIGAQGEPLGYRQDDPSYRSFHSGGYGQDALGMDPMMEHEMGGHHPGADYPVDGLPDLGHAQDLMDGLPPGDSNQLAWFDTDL
Experiment: KD50 measurement using competitive fluorescence polarization (FP) with labelled TCF4
Assay type: binding
Details: fluorescence polarization, β-catenin
Procedure, shortened: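 Competitive FP in which unlabelled inhibitor (10 nM to 30 uM dilution series) displaces 5 nM labelled TCF4 from 100 nM β-catenin, room temperature. Read-out ex 470 nm, em 520 nm; experiment repeated three times.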

For `CCCCCCCCC(=O)N[C@@H](Cc1c[nH]c2ccccc12)C(=O)N(C)[C@@H](C)C(=O)N[C@@H](CCC(N)=O)C(=O)N[C@H]1CCC(=O)NCCCC[C@@H](C(=O)N[C@@H](Cc2c[nH]cn2)C(=O)N[C@H](C(=O)N[C@@H](CCC(N)=O)C(=O)N[C@@H](CCCNC(=N)N)C(=O)N[C@H](C(=O)N[C@@H](Cc2c[nH]c3ccccc23)C(=O)NCC(N)=O)C(C)C)C2CCCCC2)NC(=O)[C@H](CC(=O)O)NC(=O)[C@H](CC(C)C)NC(=O)[C@H]([C@@H](C)CC)NC1=O` [compound 427] (HELM PEPTIDE1{[CCCCCCCCC(=O)[*:2]].W.[meA].Q.E.I.L.D.K.H.[O=C([C@@H](N[*:1])C1CCCCC1)[*:2]].Q.R.V.W.G.[am]}$PEPTIDE1,PEPTIDE1,5:R3-9:R3$$$V2.0), the Kd (read-out: β-Cat FP KD) was under 400 nM.

`CC[C@H](C)[C@@H]1NC(=O)[C@H](CC(C)C)NC(=O)[C@H](Cc2ccccc2)NC(=O)[C@H](Cc2c[nH]c3ccccc23)NC(=O)[C@@H](N)CCCCNC(=O)CN(CC(=O)O)C(=O)[C@H](Cc2c[nH]c3ccccc23)NC(=O)[C@H](C)NC(=O)[C@H](CS)NC1=O` [compound 284] was tested, and the “β-Cat FP Hill slope” value was 0.7.

Work on `CCCCCCCCC(=O)N[C@@H](Cc1c[nH]c2ccccc12)C(=O)N(C)[C@@H](C)C(=O)N[C@@H](CCC(N)=O)C(=O)N[C@H]1CCCCNC(=O)CC[C@@H](C(=O)N[C@@H](Cc2c[nH]cn2)C(=O)N[C@H](C(=O)N[C@@H](CCC(N)=O)C(=O)N[C@@H](CCCNC(=N)N)C(=O)N[C@H](C(=O)N[C@@H](Cc2c[nH]c3ccccc23)C(=O)NCC(N)=O)C(C)C)C(C)C)NC(=O)[C@H](CC(=O)O)NC(=O)[C@H](CC(C)C)NC(=O)[C@H](C2CCCCC2)NC1=O` [compound 422] (HELM PEPTIDE1{[CCCCCCCCC(=O)[*:2]].W.[meA].Q.K.[O=C([C@@H](N[*:1])C1CCCCC1)[*:2]].L.D.E.H.V.Q.R.V.W.G.[am]}$PEPTIDE1,PEPTIDE1,5:R3-9:R3$$$V2.0) yielded a Kd (read-out: β-Cat FP KD) of 400 to 1000 nM.

`CC[C@H](C)[C@@H]1NC(=O)[C@@H](NC(=O)[C@H](CCC(N)=O)NC(=O)[C@H](C)N(C)C(=O)[C@H](Cc2c[nH]c3ccccc23)NC(C)=O)CCCCNC(=O)CC[C@@H](C(=O)N[C@@H](Cc2c[nH]cn2)C(=O)N[C@H](C(=O)N[C@@H](CO)C(=O)N[C@@H](CCCNC(=N)N)C(=O)N[C@H](C(=O)N[C@@H](Cc2c[nH]c3ccccc23)C(=O)NCC(N)=O)C(C)C)C2CCCCC2)NC(=O)[C@H](CC(=O)O)NC(=O)[C@H](CC(C)C)NC1=O` [compound 416] (HELM PEPTIDE1{[ac].W.[meA].Q.K.I.L.D.E.H.[O=C([C@@H](N[*:1])C1CCCCC1)[*:2]].S.R.V.W.G.[am]}$PEPTIDE1,PEPTIDE1,5:R3-9:R3$$$V2.0) was tested, and the “β-Cat FP Hill slope” value was 0.7 and the Kd (read-out: β-Cat FP KD) was under 400 nM.

With `CC[C@H](C)[C@@H]1NC(=O)[C@H](CC(C)C)NC(=O)[C@H](Cc2ccccc2)NC(=O)[C@@H](NC(C)=O)CCCCNC(=O)C[C@@H](C(=O)O)NC(=O)[C@H](Cc2c[nH]c3ccccc23)NC(=O)[C@H](Cc2ccccc2)NC(=O)[C@H](C)NC1=O` [compound 254] (HELM PEPTIDE1{[ac].K.F.L.I.A.F.W.D}$PEPTIDE1,PEPTIDE1,2:R3-9:R3$$$V2.0) the Kd (read-out: β-Cat FP KD) was over 30000 nM.

`CC[C@H](C)[C@@H]1NC(=O)[C@@H](NC(=O)[C@H](CCC(N)=O)NC(=O)[C@H](C)N(C)C(=O)[C@H](Cc2c[nH]c3ccccc23)NC(C)=O)CCCNC(=O)CC[C@@H](C(=O)N[C@@H](Cc2c[nH]cn2)C(=O)N[C@H](C(=O)N[C@@H](CCC(N)=O)C(=O)N[C@@H](CCCNC(=N)N)C(=O)N[C@H](C(=O)N[C@@H](Cc2c[nH]c3ccccc23)C(=O)NCC(N)=O)C(C)C)C2CCCCC2)NC(=O)[C@H](CC(=O)O)NC(=O)[C@H](CC(C)C)NC1=O` [compound 424] (HELM PEPTIDE1{[ac].W.[meA].Q.[Orn].I.L.D.E.H.[O=C([C@@H](N[*:1])C1CCCCC1)[*:2]].Q.R.V.W.G.[am]}$PEPTIDE1,PEPTIDE1,5:R3-9:R3$$$V2.0) was tested, and the “β-Cat FP Hill slope” value was 0.7 and the Kd (read-out: β-Cat FP KD) was under 400 nM.

With `CC[C@H](C)[C@@H]1NC(=O)[C@H](CC(C)C)NC(=O)[C@H](Cc2ccccc2)NC(=O)[C@H](Cc2c[nH]c3ccccc23)NC(=O)[C@@H](N)CCCCNC(=O)CCCCCNC(=O)C[C@@H](C(=O)O)NC(=O)[C@H](Cc2c[nH]c3ccccc23)NC(=O)[C@H](C)NC(=O)[C@H](CS)NC1=O` [compound 249] (HELM PEPTIDE1{K.W.F.L.I.C.A.W.[O=C(O)[C@H](CC(=O)[*:2])N[*:1]].[O=C(CCCCCN[*:1])[*:2]]}$PEPTIDE1,PEPTIDE1,1:R3-10:R2$$$V2.0) the “β-Cat FP Hill slope” value was 0.92 and the Kd (read-out: β-Cat FP KD) was 400 to 1000 nM.

In the case of `CC[C@H](C)[C@H](NC(=O)[C@H](CC(C)C)NC(=O)[C@H](Cc1ccccc1)NC(C)=O)C(=O)N[C@@H](CO)C(=O)N[C@@H](Cc1ccccc1)C(=O)N[C@@H](Cc1c[nH]c2ccccc12)C(=O)NCC(=O)O` [compound 239] (Ac-FLISFWG-OH), the “β-Cat FP Hill slope” value is reported as 0.7 and the Kd (read-out: β-Cat FP KD) is reported as 1000 to 10000 nM.

`CC[C@H](C)[C@@H]1NC(=O)[C@@H](NC(=O)[C@H](CCC(N)=O)NC(=O)[C@H](C)N(C)C(=O)[C@H](Cc2c[nH]c3ccccc23)NC(=O)COc2ccccc2)CCCCNC(=O)CC[C@@H](C(=O)N[C@@H](Cc2c[nH]cn2)C(=O)N[C@H](C(=O)N[C@@H](CCC(N)=O)C(=O)N[C@@H](CCCNC(=N)N)C(=O)N[C@H](C(=O)N[C@@H](Cc2c[nH]c3ccccc23)C(=O)NCC(N)=O)C(C)C)C(C)C)NC(=O)[C@H](CC(=O)O)NC(=O)[C@H](CC2CCCCC2)NC1=O` [compound 408] (HELM PEPTIDE1{[O=C(COc1ccccc1)[*:2]].W.[meA].Q.K.I.[Cha].D.E.H.V.Q.R.V.W.G.[am]}$PEPTIDE1,PEPTIDE1,5:R3-9:R3$$$V2.0) was tested, and the Kd (β-Cat FP KD) was over 30000 nM.

In the case of `CC[C@H](C)[C@@H]1NC(=O)[C@H](CO)NC(=O)[C@@H](NC(=O)[C@H](C)N(C)C(=O)[C@H](Cc2c[nH]c3ccccc23)NC(C)=O)CCC(=O)NCCCC[C@@H](C(=O)N[C@@H](CCC(=O)O)C(=O)N[C@@H](Cc2c[nH]cn2)C(=O)N[C@H](C(=O)N[C@@H](CCC(N)=O)C(=O)N[C@@H](CCCNC(=N)N)C(=O)N[C@H](C(=O)N[C@@H](Cc2c[nH]c3ccccc23)C(=O)NCC(N)=O)C(C)C)C(C)C)NC(=O)[C@H](CC(C)C)NC1=O` [compound 450] (HELM PEPTIDE1{[ac].W.[meA].E.S.I.L.K.E.H.V.Q.R.V.W.G.[am]}$PEPTIDE1,PEPTIDE1,4:R3-8:R3$$$V2.0), the “β-Cat FP Hill slope” value is reported as 0.79 and the Kd (read-out: β-Cat FP KD) is reported as 400 to 1000 nM.

`CC[C@H](C)[C@@H]1NC(=O)[C@@H](NC(=O)[C@H](CCC(N)=O)NC(=O)[C@H](C)N(C)C(=O)[C@H](Cc2c[nH]c3ccccc23)NC(C)=O)CCCCNC(=O)C[C@@H](C(=O)N[C@@H](Cc2c[nH]cn2)C(=O)N[C@H](C(=O)N[C@@H](CCC(N)=O)C(=O)N[C@@H](C)C(=O)N[C@H](C(=O)N[C@@H](Cc2c[nH]c3ccccc23)C(N)=O)C(C)C)C2CCCCC2)NC(=O)[C@H](CC(N)=O)NC(=O)[C@H](CC(C)C)NC1=O` [compound 458] (HELM PEPTIDE1{[ac].W.[meA].Q.K.I.L.N.D.H.[O=C([C@@H](N[*:1])C1CCCCC1)[*:2]].Q.A.V.W.[am]}$PEPTIDE1,PEPTIDE1,5:R3-9:R3$$$V2.0) was tested, and the “β-Cat FP Hill slope” value was 0.7 and the Kd (read-out: β-Cat FP KD) was 400 to 1000 nM.

With `CC[C@H](C)[C@H](NC(=O)[C@H](CC(C)C)NC(=O)[C@@H](NC(=O)[C@H](Cc1c[nH]c2ccccc12)NC(=O)[C@H](CCSC)NC(C)=O)[C@@H](C)CC)C(=O)N[C@@H](CO)C(=O)N[C@@H](Cc1ccccc1)C(=O)N[C@@H](Cc1c[nH]c2ccccc12)C(=O)NCCCC(=O)O` [compound 240] (HELM PEPTIDE1{[ac].M.W.I.L.I.S.F.W.[O=C(O)CCCN[*:1]]}$$$$V2.0) the “β-Cat FP Hill slope” value was 1.44 and the Kd (read-out: β-Cat FP KD) was under 400 nM.

For `CSCC[C@H](N)C(=O)N[C@@H](Cc1c[nH]c2ccccc12)C(=O)N[C@@H](Cc1ccccc1)C(=O)N[C@@H](CC(C)C)C(=O)N[C@@H](C)C(=O)N[C@@H](CO)C(=O)N[C@@H](Cc1ccccc1)C(=O)N[C@@H](Cc1c[nH]c2ccccc12)C(=O)NCC(=O)O` [compound 11] (H-MWFLASFWG-OH), the “β-Cat FP Hill slope” value was 1.31 and the Kd (read-out: β-Cat FP KD) was 400 to 1000 nM.

`CC[C@H](C)[C@@H]1NC(=O)[C@@H](NC(=O)[C@H](CCC(N)=O)NC(=O)[C@H](C)N(C)C(C)=O)CCCCNC(=O)CC[C@@H](C(=O)N[C@@H](Cc2c[nH]cn2)C(=O)N[C@H](C(=O)N[C@@H](CCC(N)=O)C(=O)N[C@@H](CCCNC(=N)N)C(=O)N[C@H](C(=O)N[C@@H](Cc2c[nH]c3ccccc23)C(=O)NCC(N)=O)C(C)C)C2CCCCC2)NC(=O)[C@H](CC(N)=O)NC(=O)[C@H](CC(C)C)NC1=O` [compound 433] (HELM PEPTIDE1{[ac].[meA].Q.K.I.L.N.E.H.[O=C([C@@H](N[*:1])C1CCCCC1)[*:2]].Q.R.V.W.G.[am]}$PEPTIDE1,PEPTIDE1,4:R3-8:R3$$$V2.0) was tested, and the “β-Cat FP Hill slope” value was 0.7 and the Kd (read-out: β-Cat FP KD) was 400 to 1000 nM.
